As usually defined, the IC50 is the midpoint of a concentration-inhibition curve. What is called Ki is the equilibrium dissociation constant of an inhibitor or competing ligand from its target.

Molecules are shown by their SMILES.

In one data set the test system is K. brevis EH. As to the kind of experiment: Inhibition assay of purified EH with fluorescent substrate 5b. Conditions: substrate 5b 100 μM, EH 0.1 mg/ml, 2 min preincubation, pH 7.0, 30 °C. The class given is biochemical, Karenia brevis.
Data set [1] has as its system EH activity of K. brevis CFE.
The target of data set [2] is Rhodococcus erythropolis LEH. Conditions: ref Arand et al., 2003; cited from earlier work.

`CC1OC1c1ccccc1` (stereo not drawn) [cis-β-methylstyrene oxide]: in the data set with K. brevis EH, the half-maximal inhibitory concentration (IC50) was determined as 3.05 mM.
`CCCC(CCC)C(N)=O` [valpromide 8, valpromide]: in data set [1], the “inhibition of total EH activity (in words)” value is “only adamantly urea 7 inhibited the total activity”. In addition, in data set [2], the inhibitory constant (Ki) is 0.1 mM.
In the data set on K. brevis EH, `C[C@H]1O[C@@H]1c1ccccc1` (relative stereo) [trans-β-methylstyrene oxide-, trans-β-methylstyrene oxide] had an IC50 of 14.3 mM.
Still for that read-out and setting: in the case of `CC1(C)OC1c1ccccc1` (stereo not drawn) [β-dimethylstyrene oxide] it was 6.99 mM.
